Tests used:
[1] = Three-day MTT cell growth inhibition assay, PC3; type: cell-based, human; conditions: human, PC3 cells
PC3 = assay: Three-day MTT cell growth inhibition assay, PC3; type: cell-based, human; conditions: Homo sapiens, PC-3, 72 h, 3 days
[2] = tested on: human prostate cells (PC3, PC3-M, 1532NPTX, 1542NPTX, 1532CPTX, 1542CPTX); assay: Cell invasion, panel of human prostate cells; type: cell-based
Experimental: Human prostate metastatic cells (PC3, PC3-M), and HPV-transformed normal (1532NPTX, 1542NPTX) and primary cancer (1532CPTX, 1542CPTX) cells, were treated with 10 µM genistein (G), KBU2046 (46), or vehicle (CO), and after 3 days, cell invasion was measured. Values are mean ± SEM of a single experiment in replicates of N = 4, with similar findings in multiple separate experiments (also N = 4). c Single-cell migration. Cell migration was measured after treatment for 3 days with 10 µM KBU2046 or vehicle (control). Values are mean ± SEM of a single experiment in replicates of N = 24, with similar findings in a separate experiment (also N = 24). *Denotes Student’s t-test P value <0.05, compared to controls. d Human cord blood hematopoietic stem cell colony formation assay. Values are the mean ± SD number of total, CFU-GM, CFU-GEMM, or BFU-E colonies at 14 days after treatment with KBU2046, from a single experiment in replicates of N = 2. e Induction of estrogen-responsive genes. Values are the mean ± SD of a single experiment, with similar results seen in a separate experiment, both in replicates of N = 2
Boyden chamber cell invasion assays were performed as previously described by us[30], using either denatured collagen (BD Biosciences) or type IV human collagen (BD Biosciences), with all experiments repeated, each in N = 4 replicates. […]

HSP90β = target: T1, HSP90β (Homo sapiens, UniProt P08238); assay: Biophysical binding assays and DARTS, isolated HSP90β; conditions: ITC, thermal shift, biolayer interferometry, dynamic light scattering, DARTS
T1 construct: made in house; host or cells: Rosetta BL-21 E. coli
T1 sequence (P08238 whole entry): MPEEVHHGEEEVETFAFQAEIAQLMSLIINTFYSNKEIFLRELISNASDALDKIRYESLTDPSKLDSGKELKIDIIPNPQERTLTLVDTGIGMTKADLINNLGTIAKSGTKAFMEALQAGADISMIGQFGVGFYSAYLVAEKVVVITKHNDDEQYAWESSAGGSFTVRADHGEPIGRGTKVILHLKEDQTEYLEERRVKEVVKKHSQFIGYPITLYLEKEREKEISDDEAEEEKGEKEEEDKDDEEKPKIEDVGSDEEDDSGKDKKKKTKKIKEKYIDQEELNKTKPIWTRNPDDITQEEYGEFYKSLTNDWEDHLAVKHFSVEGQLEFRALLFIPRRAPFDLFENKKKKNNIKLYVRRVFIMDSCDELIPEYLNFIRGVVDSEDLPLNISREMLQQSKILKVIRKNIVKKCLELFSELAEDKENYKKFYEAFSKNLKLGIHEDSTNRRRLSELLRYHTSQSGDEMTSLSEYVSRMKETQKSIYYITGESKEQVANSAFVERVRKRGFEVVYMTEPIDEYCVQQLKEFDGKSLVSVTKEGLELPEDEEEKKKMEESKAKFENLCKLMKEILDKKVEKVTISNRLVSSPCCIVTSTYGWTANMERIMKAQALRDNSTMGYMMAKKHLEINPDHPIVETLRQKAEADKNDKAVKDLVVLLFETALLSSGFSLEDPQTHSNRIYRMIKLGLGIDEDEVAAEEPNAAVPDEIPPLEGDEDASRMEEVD
Experimental: (§1) Fluorescent thermal shift, isothermal titration calorimetry, and biolayer interferometry assays[46] were all performed as described by us using MEK4EE (37-399, S257E, T261E) cloned into pMCSG7 and KRX Competent E. coli cells (Promega Inc.) and above denoted full-length HSP90B and CDC37 vectors and Rosetta BL-21 and BL-21 DE-3 competent E. coli cells, respectively. DARTS assays were conducted as described, using equimolar amounts of CDC37 and HSP90β, thermolysin digestion, and silver stain visualization (ProteoSilver Silver Stain Kit, Sigma-Aldrich).
(§2) Supplementary Figure 14. […] Studies used purified […]
(§3) recombinant HSP90β or CDC37. Fluorescent thermal shift 5, isothermal titration calorimetry 6, […]
(§4) evidence of KBU2046 binding to either HSP90β or CDC37 (data not shown). For DARTS assay, HSP90β or CDC37 were individually pre-incubated with KBU2046, thermolysin added, and reaction products were separated by SDS PAGE and visualized by silver stain (depicted above).
(§5) NTco – no thermolysin control. However, when the DARTS assay was conducted with both HSP90β and CDC37 present, KBU2046 protected both proteins from degradation in a concentration-dependent manner (see manuscript Fig 5A).
(§6) (also on this page, place not known: HSP90 Ntco 0 0.001 0.01 0.1 1.0 10 µM KBU2046, thermolysin NTco thermolysin CDC37)
(§7) (1 picture or pasted object on this page, not shown here)

CDC37 = target: T2, CDC37 (Homo sapiens, UniProt Q16543); assay: Biophysical binding assays and DARTS, isolated CDC37; conditions: ITC, thermal shift, biolayer interferometry, dynamic light scattering, DARTS
T2 construct: made in house; host or cells: BL-21 DE-3 E. coli
T2 sequence (Q16543 whole entry): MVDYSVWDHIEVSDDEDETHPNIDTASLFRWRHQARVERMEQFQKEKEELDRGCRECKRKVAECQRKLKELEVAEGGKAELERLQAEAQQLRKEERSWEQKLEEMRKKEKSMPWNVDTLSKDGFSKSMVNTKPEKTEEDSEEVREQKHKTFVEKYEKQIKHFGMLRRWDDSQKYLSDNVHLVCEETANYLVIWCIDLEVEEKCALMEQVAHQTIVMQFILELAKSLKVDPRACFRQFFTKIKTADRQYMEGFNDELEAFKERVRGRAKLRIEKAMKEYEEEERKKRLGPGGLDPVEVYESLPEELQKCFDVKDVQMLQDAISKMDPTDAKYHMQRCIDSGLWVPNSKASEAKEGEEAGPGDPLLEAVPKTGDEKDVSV
Experimental: as §1, §2, §3, §4, §5, §6, §7

MMPs: 1,2,3, and 7-16 = assay: Qiagen extracellular matrix/adhesion and metastasis/invasion expression arrays; type: cell-based, human; conditions: PC3-M cells, three days
Excerpt: Response to Reviewers' comments:
We wish to thank the reviewers for their consideration of our manuscript. Their review and critiques have served to improve this manuscript. Below is a point-by-point response to reviewer critiques.
Changes in the manuscript and associated documents are underlined.
General comments: Much of the data is compelling and would be of interest to readers of Nature Communications, but some experimental procedures require a more thorough description and some of the data are too cursory to support the authors’ mechanistic conclusions...
Response. Thank you for your comprehensive and in formed review, we are encouraged that you felt that our data would be compelling to the readers of Nature Communications. In our revised manuscript as well as below, you will find that we have provided the requested clarifications, expanded descriptions and additional experiments requested.
1. Does the compound (herein abbreviated as ‘46’) have any impact on MMPs or other matrix-destroying activities? […] We did in fact suspect that this may be contributing to KBU2046’s anti-invasion efficacy, and as such we evaluated an entire panel of MMPs as part of two separate expression arrays. […]
2. […] Description of this experiment in both the figure legend and in Supplemental Methods is too cursory for the reader to understand how the treatment plan was selected. […]

With `O=C1c2ccccc2OCC1c1ccc(F)cc1` (racemic) [KBU2046, (±)-3(4-fluorophenyl)chroman-4-one] the viability at 3 days, 50 µM [1] was 88.1%, the IC20 (PC3) was > 50 µM and the IC50 (PC3) was > 50 µM. For the same molecule, the cell invasion ([2]; 10 µM, 3 days) was “inhibits cell invasion with efficacy equal-to-or-greater-than that of genistein”, the effect upon invasion ([2]; after 3 days treatment of cells) was 50% and the “binding to HSP90β” value (HSP90β) was “no evidence of KBU2046 binding”. The “binding to CDC37” value (CDC37) was “no evidence of KBU2046 binding” and the “expression of MMPs and other array members” value (MMPs: 1,2,3, and 7-16) was “no significant differences”.

Source: publication PMC6014988, “Precision therapeutic targeting of human cancer cell motility” (Nature Communications, 2018)
